Laboratory results: patent publication US20240190831A1, “TRANSTHYRETIN STABILIZING COMPOUNDS” (Protego Biopharma, Inc., priority 2021, published 2024)
Counter-ions that a name gives are not always drawn.

Experiment: In vitro rat liver S9 stability assay (formation of tafamidis)
Format: in vitro ADME
Settings: rat liver S9, 1 μM test compound, 37° C.
Protocol: A stability assay in liver S9 (rat or human) was used to evaluate the ability of a compound provided herein to convert to an active TTR stabilizer. The test compound was added to liver S9 and incubated at 37° C. in a water bath at a concentration of 1 μM. At each time point (0, 5, 10, 20, 30 and 60 min), stop solution (tolbutamide plus labetalol) was added to precipitate protein and mixed thoroughly. After centrifugation, an aliquot of supernatant was analyzed by LC-MS/MS. The percentage of formation of active agent was calculated at each time point.

Row | Formation of tafamidis at 60 min | Structure (SMILES)
1 | A (A is <25%) | O=C(N[C@@H]1CCC[C@@H]1O)c1ccc2nc(-c3cc(Cl)cc(Cl)c3)oc2c1 (relative stereo) [Compound 28, 2-(3,5-dichlorophenyl)-N-((cis)-2-hydroxycyclopentyl)benzo-[d]oxazole-6-carboxamide]
2 | A (A is <25%) | O=C(N[C@@H]1CCC[C@H]1O)c1ccc2nc(-c3cc(Cl)cc(Cl)c3)oc2c1 (relative stereo) [Compound 29, 2-(3,5-dichlorophenyl)-N-((trans)-2-hydroxycyclopentyl)benzo-[d]oxazole-6-carboxamide]
3 | A (A is <25%) | O=C(N[C@@H]1CC[C@H](O)C1)c1ccc2nc(-c3cc(Cl)cc(Cl)c3)oc2c1 (relative stereo) [Compound 30, 2-(3,5-dichlorophenyl)-N-((cis)-3-hydroxycyclopentyl)benzo-[d]oxazole-6-carboxamide]
4 | A (A is <25%) | O=C(N[C@@H]1CC[C@@H](O)C1)c1ccc2nc(-c3cc(Cl)cc(Cl)c3)oc2c1 (relative stereo) [Compound 31, 2-(3,5-dichlorophenyl)-N-((trans)-3-hydroxycyclopentyl)benzo-[d]oxazole-6-carboxamide]
5 | A (A is <25%) | O=C(N[C@@H]1CCCC[C@@H]1O)c1ccc2nc(-c3cc(Cl)cc(Cl)c3)oc2c1 (relative stereo) [Compound 32, 2-(3,5-dichlorophenyl)-N-((cis)-2-hydroxycyclohexyl)benzo-[d]oxazole-6-carboxamide]
6 | A (A is <25%) | O=C(N[C@@H]1CCCC[C@H]1O)c1ccc2nc(-c3cc(Cl)cc(Cl)c3)oc2c1 (relative stereo) [Compound 33, 2-(3,5-dichlorophenyl)-N-((trans)-2-hydroxycyclohexyl)benzo-[d]oxazole-6-carboxamide]
7 | A (A is <25%) | CN(C)[C@H]1CC[C@@H](OC(=O)c2ccc3nc(-c4cc(Cl)cc(Cl)c4)oc3c2)C1 (relative stereo) [Compound 46, Cis-3-(dimethylamino)cyclopentyl 2-(3,5-dichlorophenyl)benzo-[d]oxazole-6-carboxylate—HCl salt]
8 | A (A is <25%) | CN(C)[C@@H]1CC[C@@H](OC(=O)c2ccc3nc(-c4cc(Cl)cc(Cl)c4)oc3c2)C1 (relative stereo) [Compound 47, Trans-3-(dimethylamino)cyclopentyl 2-(3,5-dichlorophenyl)benzo-[d]oxazole-6-carboxylate—HCl salt]
9 | A (A is <25%) | O=C(O[C@H]1CCN2CCC[C@H]12)c1ccc2nc(-c3cc(Cl)cc(Cl)c3)oc2c1 (relative stereo) [Compound 58, (cis)-hexahydro-1H-pyrrolizin-1-yl 2-(3,5-dichlorophenyl)benzo[d]oxazole-6-carboxylate]
10 | A (A is <25%) | O=C(O[C@H]1CCN2CCC[C@@H]12)c1ccc2nc(-c3cc(Cl)cc(Cl)c3)oc2c1 (relative stereo) [Compound 59, (trans)-hexahydro-1H-pyrrolizin-1-yl 2-(3,5-dichlorophenyl)benzo[d]oxazole-6-carboxylate]
11 | C (C is ≥50 to <75%) | CC(CO)OC(=O)c1ccc2nc(-c3cc(Cl)cc(Cl)c3)oc2c1 (single isomer, unassigned) [Compound 43, 1-hydroxypropan-2-yl 2-(3,5-dichlorophenyl) benzo[d]oxazole-6-carboxylate]
12 | C (C is ≥50 to <75%) | CC(CO)OC(=O)c1ccc2nc(-c3cc(Cl)cc(Cl)c3)oc2c1 (single isomer, unassigned) [Compound 44, 1-hydroxypropan-2-yl 2-(3,5-dichlorophenyl) benzo[d]oxazole-6-carboxylate]
13 | A (A is <25%) | O=C(O[C@H]1CCCN2CCC[C@H]12)c1ccc2nc(-c3cc(Cl)cc(Cl)c3)oc2c1 (single isomer, unassigned) [Compound 69, Octahydroindolizin-8-yl 2-(3,5-dichlorophenyl)benzo[d]oxazole-6-carboxylate]
14 | A (A is <25%) | O=C(O[C@H]1CCCN2CCC[C@@H]12)c1ccc2nc(-c3cc(Cl)cc(Cl)c3)oc2c1 (single isomer, unassigned) [Compound 70, Octahydroindolizin-8-yl 2-(3,5-dichlorophenyl)benzo[d]oxazole-6-carboxylate]
15 | B (B is ≥25 to <50%) | O=C(O[C@H]1CCCN2CCCC[C@H]12)c1ccc2nc(-c3cc(Cl)cc(Cl)c3)oc2c1 (single isomer, unassigned) [Compound 71, Octahydro-1H-quinolizin-1-yl 2-(3,5-dichlorophenyl)benzo[d]oxazole-6-carboxylate]
16 | A (A is <25%) | O=C(O[C@H]1CCCN2CCCC[C@@H]12)c1ccc2nc(-c3cc(Cl)cc(Cl)c3)oc2c1 (single isomer, unassigned) [Compound 72, Octahydro-1H-quinolizin-1-yl 2-(3,5-dichlorophenyl)benzo[d]oxazole-6-carboxylate]
17 | A (A is <25%) | CC(F)(F)CNC(=O)c1ccc2nc(-c3cc(Cl)cc(Cl)c3)oc2c1 [Compound 1, 2-(3,5-dichlorophenyl)-N-(2,2-difluoropropyl)benzo[d]oxazole-6-carboxamide]
18 | A (A is <25%) | CC(NC(=O)c1ccc2nc(-c3cc(Cl)cc(Cl)c3)oc2c1)C(F)F (centres unmarked) [Compound 2, 2-(3,5-dichlorophenyl)-N-(1,1-difluoropropan-2-yl)benzo[d]oxazole-6-carboxamide]

Row | Formation of tafamidis at 60 min | Structure (SMILES)
19 | A (A is <25%) | O=C(NCC(F)(F)C(F)(F)F)c1ccc2nc(-c3cc(Cl)cc(Cl)c3)oc2c1 [Compound 3, 2-(3,5-dichlorophenyl)-N-(2,2,3,3,3-pentafluoropropyl)benzo[d]oxazole-6-carboxamide]
20 | A (A is <25%) | NC(=O)c1ccc2nc(-c3cc(Cl)cc(Cl)c3)oc2c1 [Compound 4, 2-(3,5-dichlorophenyl)benzo[d]oxazole-6-carboxamide]
21 | A (A is <25%) | N#CCNC(=O)c1ccc2nc(-c3cc(Cl)cc(Cl)c3)oc2c1 [Compound 5, N-(cyanomethyl)-2-(3,5-dichlorophenyl)benzo[d]oxazole-6-carboxamide]
22 | A (A is <25%) | COCCNC(=O)c1ccc2nc(-c3cc(Cl)cc(Cl)c3)oc2c1 [Compound 6, 2-(3,5-dichlorophenyl)-N-(2-methoxyethyl)benzo[d]oxazole-6-carboxamide]
23 | A (A is <25%) | CN(C)CCN(C)C(=O)c1ccc2nc(-c3cc(Cl)cc(Cl)c3)oc2c1 [Compound 8, 2-(3,5-dichlorophenyl)-N-(2-(dimethylamino)ethyl)-N-methylbenzo[d]oxazole-6-carboxamide]
24 | A (A is <25%) | CNCCNC(=O)c1ccc2nc(-c3cc(Cl)cc(Cl)c3)oc2c1 [Compound 9, 2-(3,5-dichlorophenyl)-N-(2-(methylamino)ethyl)benzo[d]oxazole-6-carboxamide hydrochloride]
25 | A (A is <25%) | CC(CO)NC(=O)c1ccc2nc(-c3cc(Cl)cc(Cl)c3)oc2c1 (centres unmarked) [Compound 10, 2-(3,5-dichlorophenyl)-N-(1-hydroxypropan-2-yl)benzo[d]oxazole-6-carboxamide]
26 | A (A is <25%) | CC(O)CNC(=O)c1ccc2nc(-c3cc(Cl)cc(Cl)c3)oc2c1 (centres unmarked) [Compound 11, 2-(3,5-dichlorophenyl)-N-(2-hydroxypropyl)benzo[d]oxazole-6-carboxamide]
27 | A (A is <25%) | O=C(NC1CC1(F)F)c1ccc2nc(-c3cc(Cl)cc(Cl)c3)oc2c1 (centres unmarked) [Compound 12, 2-(3,5-dichlorophenyl)-N-(2,2-difluorocyclopropyl)benzo[d]-oxazole-6-carboxamide]
28 | A (A is <25%) | O=C(NC1CCCCC1(F)F)c1ccc2nc(-c3cc(Cl)cc(Cl)c3)oc2c1 (centres unmarked) [Compound 13, 2-(3,5-dichlorophenyl)-N-(2,2-difluorocyclohexyl)benzo[d]oxazole-6-carboxamide]
29 | A (A is <25%) | O=C(NC1CCCC(F)(F)C1)c1ccc2nc(-c3cc(Cl)cc(Cl)c3)oc2c1 (centres unmarked) [Compound 14, 2-(3,5-dichlorophenyl)-N-(3,3-difluorocyclohexyl)benzo[d]oxazole-6-carboxamide]
30 | A (A is <25%) | O=C(NC1CCC(F)(F)CC1)c1ccc2nc(-c3cc(Cl)cc(Cl)c3)oc2c1 [Compound 15, 2-(3,5-dichlorophenyl)-N-(4,4-difluorocyclohexyl)benzo[d]oxazole-6-carboxamide]
31 | A (A is <25%) | O=C(NC1COC1)c1ccc2nc(-c3cc(Cl)cc(Cl)c3)oc2c1 [Compound 16, 2-(3,5-dichlorophenyl)-N-(oxetan-3-yl)benzo[d]oxazole-6-carboxamide]
32 | A (A is <25%) | O=C(NC1CCOC1)c1ccc2nc(-c3cc(Cl)cc(Cl)c3)oc2c1 (centres unmarked) [Compound 17, 2-(3,5-dichlorophenyl)-N-(tetrahydrofuran-3-yl)benzo[d]oxazole-6-carboxamide]
33 | A (A is <25%) | O=C(NC1CCC1)c1ccc2nc(-c3cc(Cl)cc(Cl)c3)oc2c1 [Compound 18, N-cyclobutyl-2-(3,5-dichlorophenyl)benzo[d]oxazole-6-carboxamide]
34 | A (A is <25%) | O=C(NC1CCCC1)c1ccc2nc(-c3cc(Cl)cc(Cl)c3)oc2c1 [Compound 19, N-cyclopentyl-2-(3,5-dichlorophenyl)benzo[d]oxazole-6-carboxamide]
35 | A (A is <25%) | O=C(NC1CC1)c1ccc2nc(-c3cc(Cl)cc(Cl)c3)oc2c1 [Compound 20, N-cyclopropyl-2-(3,5-dichlorophenyl)benzo[d]oxazole-6-carboxamide]
